Measured values reported in a melting point compilation (Tetko et al.).

For `Cc1cc(C(=O)O)c(C)n1Cc1ccccc1`, the melting point was 196 to 200 °C.
`CC(=O)c1cccc(S(=O)(=O)N2CCOCC2)c1` showed a melting point of 142 to 144 °C.
For `O=C(CCl)NCC(=O)Nc1ccc(F)c(F)c1F`, the melting point was 160 to 162 °C.
With `Fc1ccc(CBr)c2ncccc12` the melting point was 94 to 96 °C.
`O=c1[nH]c(Cl)nc2c1cnn2-c1ccccc1` showed a melting point of 276 to 278 °C.
`CC(N)Cc1cccc(O)c1` (centres undefined) gave a melting point of 45 to 47 °C.
Work on `O=c1c(Cl)c(Cl)cnn1-c1ccc(Cl)cc1` yielded a melting point of 186 to 188 °C.
Work on `CC(=O)Oc1ccc(C(=O)Nc2ccccc2)cc1` yielded a melting point of 161 to 163 °C.
For `CCOC(=O)c1ccc2c(c1)NC(=O)C(C)N2` (centres undefined), the melting point was 181 to 183 °C.
Compound `OCc1cncc2ccccc12` has a melting point of 86 to 88 °C.
In the case of `COc1cc(C=O)cc2c1OCO2`, the melting point is reported as 130 to 134 °C.
Compound `CNc1nc2ccccc2o1` has a melting point of 99 to 101 °C.
Compound `Cc1ccc2c(CCC(=O)O)c[nH]c2c1` has a melting point of 127 to 129 °C.
In the case of `COc1ccc(-n2c(S)nc3ccccc32)cc1`, the melting point is reported as 213 to 215 °C.
In the case of `O=C(O)c1ccccc1Oc1ccc(Cl)cc1Cl`, the melting point is reported as 161 to 163 °C.
Work on `O=C(O)CCNC(=O)C12CC3CC(CC(C3)C1)C2` yielded a melting point of 185 to 187 °C.
Compound `CCOc1ccc(S(=O)(=O)Cl)cc1` has a melting point of 40 to 45 °C.
`COc1ccc(N)cc1NC(=O)OC(C)(C)C` gave a melting point of 108 to 110 °C.
`Cc1cc(C2CCCNC2)n[nH]1` (centres undefined) showed a melting point of 104 to 106 °C.
In the case of `COc1ccc(-c2ccc(C(=O)O)c(F)c2)c(F)c1`, the melting point is reported as 212 to 214 °C.
Work on `Cc1ccccc1-c1cc(N)n(C)n1` yielded a melting point of 97 to 99 °C.
`O=C(O)c1cc(-c2ccccc2F)on1` gave a melting point of 182 to 184 °C.
`CCC(=O)c1c(C)nn(C)c1C` gave a melting point of 50 to 52 °C.
In the case of `Cc1cc(N)ccc1-n1cnnn1`, the melting point is reported as 135 to 137 °C.
With `O=C(O)c1cnn(-c2cccc(Cl)c2)c1` the melting point was 204 to 206 °C.
`Cc1nnnn1-c1ccc(F)c(NC(=O)CCl)c1` showed a melting point of 179 to 181 °C.
For `CNS(=O)(=O)Cc1ccccc1CN`, the melting point was 130 to 132 °C.
With `O=C(O)CCCc1ccc2[nH]c(=O)[nH]c2c1` the melting point was 244 to 246 °C.
`Nc1nc(-c2c(F)cccc2F)n[nH]1` showed a melting point of 218 to 220 °C.
`OC1CC(c2ccccc2F)C1` (centres undefined) showed a melting point of 46 to 48 °C.
`CC1Oc2ccccc2OC1C(=O)O` (centres undefined) showed a melting point of 106 to 108 °C.
In the case of `O=C(CCSc1ccccc1)c1ccc(F)cc1`, the melting point is reported as 111 to 113 °C.
In the case of `O=C(O)c1ccc(CSc2ccc(Cl)cc2)cc1`, the melting point is reported as 182 to 184 °C.
In the case of `CN(c1ccc(C(=N)N)cc1)C1CCCCC1`, the melting point is reported as 122 to 124 °C.
With `COc1ccccc1NC1=NCC(C)S1` (centres undefined) the melting point was 92 to 97 °C.
Compound `Nc1nc(-c2cc(Cl)ccc2Cl)cs1` has a melting point of 161 to 165 °C.
Compound `Cc1ccc(C)n1-c1ccc(C(=O)O)cc1` has a melting point of 213 to 215 °C.
Work on `CCOC(=O)c1nc2ccccc2c(=O)[nH]1` yielded a melting point of 189 to 193 °C.
Work on `Oc1cnnc(S)n1` yielded a melting point of 244 to 246 °C.
In the case of `Nc1ccc(I)cc1Br`, the melting point is reported as 83 to 85 °C.
`O=S1(=O)CCC(O)c2ccccc21` (centres undefined) showed a melting point of 94 to 96 °C.
For `O=C(O)C1CCCN1C(=O)c1ccccc1OC(F)F` (centres undefined), the melting point was 124 to 126 °C.
`COc1cc(C(=O)O)n(-c2ncccc2Cl)n1` gave a melting point of 242 to 244 °C.
`COc1cc2ncn(CCCC(=O)O)c(=O)c2cc1OC` showed a melting point of 198 to 200 °C.
`COC(=O)NCc1ccc(N)cc1` gave a melting point of 95 to 97 °C.
`ClCc1csc(Cc2ccc(Cl)cc2)n1` showed a melting point of 68 to 70 °C.
For `CS(=O)(=O)c1ccc(N)c(N)c1`, the melting point was 125 to 127 °C.
In the case of `CC(C)(C)OC(=O)NC1CCN(C2CCNC2)CC1` (centres undefined), the melting point is reported as 108 to 110 °C.
With `CC(Cl)C(=O)c1ccc(C(C)(C)C)cc1` (centres undefined) the melting point was 18 to 20 °C.
With `Cc1nc2nccc(C(=O)O)n2n1` the melting point was 226 to 228 °C.
Compound `Sc1nnc(-c2ccco2)n1-c1ccccc1` has a melting point of 121 to 123 °C.
Compound `COCCNc1ccc(C#N)cc1` has a melting point of 66 to 68 °C.
`O=C(O)C1CCCCC1c1nc2ccccc2s1` (centres undefined) gave a melting point of 168 to 170 °C.
Compound `Cc1cc(C)nc(SCC(=O)O)n1` has a melting point of 130 to 132 °C.
`Nc1nc2ccccc2n2nnnc12` gave a melting point of 289 to 291 °C.
In the case of `CC(C(=O)NC1CCC(C(=O)O)CC1)n1cccn1` (centres undefined), the melting point is reported as 154 to 156 °C.
Work on `O=S(=O)(NC1=NCCN1)c1cccs1` yielded a melting point of 173 to 175 °C.
In the case of `O=c1oc2ccccc2o1`, the melting point is reported as 116 to 118 °C.
With `Cc1ccc(C(=O)N2CCSCC2)cc1O` the melting point was 159 to 161 °C.
For `COc1cccc(-c2noc(Cl)n2)c1`, the melting point was 56 to 58 °C.
With `COc1ccc(-c2csc(NC(=O)CCl)n2)c(OC)c1` the melting point was 109 to 111 °C.
`Cn1cnc([N+](=O)[O-])c1S(=O)(=O)Cl` showed a melting point of 100 to 102 °C.
`COC(=O)c1ccc(I)cn1` showed a melting point of 129 to 131 °C.
For `Fc1c(Br)cncc1Br`, the melting point was 97 to 99 °C.
`Cc1ccc(F)cc1NC(=O)C(C)Cl` (centres undefined) gave a melting point of 101 to 103 °C.
Work on `Cc1ccc(NC(=O)OCC(F)(F)F)cc1` yielded a melting point of 89 to 93 °C.
`Nc1ccc(Oc2ccc(Cl)cc2)cc1C(=O)O` gave a melting point of 177 to 179 °C.
In the case of `Cc1nc(N)sc1Cc1cccc(Br)c1`, the melting point is reported as 86 to 88 °C.
With `O=C1C=CC(=O)N1c1cccc(C(F)(F)F)c1` the melting point was 67 to 69 °C.
Compound `Nc1nnc(-c2cccc([N+](=O)[O-])c2)o1` has a melting point of 256 to 258 °C.
`CC(=O)c1cc([N+](=O)[O-])c(Cl)s1` gave a melting point of 74 to 76 °C.
With `N#CCC1=NCCN1` the melting point was 84 to 86 °C.
For `Cn1c(Cl)nnc1-c1ccc(Cl)cc1`, the melting point was 179 to 181 °C.
For `O=C(O)CCN1C(=O)COc2cc(Br)ccc21`, the melting point was 153 to 155 °C.
